Entries after “also recorded” stand apart in the source; their conditions may differ.
What was measured:
hES cells [1] = test: Proliferation assay, 3H thymidine incorporation; format: cell-based, human; details: on laminin, 16 hours pulse, n=4
Procedure: Proliferation assay to quantify rates of proliferation under different culture conditions: Cells were cultured in 6 well plates on laminin in the presence of either FGF2-supplemented CM from feeder layers or activin A, KGF, NIC, or a combination of these 3 factors. Cultures were pulsed with 1 μCi/ml [methyl ^3H] thymidine (specific activity 6.7 Ci/mmol; MP Biomedicals, Irvine Calif.; www.mpbio.com) in newly replenished medium. After 16 hours, cells were harvested and thymidine incorporation into cells was quantified as previously described.^23 Briefly, DNA content was measured fluoremetrically, and incorporation of ^3H thymidine was determined by liquid scintillation counting of trichloracetic acid precipitates of the sonicated cells. Statistical significance of observed differences was determined by analysis of variance and Fischer's protected least significance difference test with a 95% level as the limit of significance using Statview IV (Abacus Concepts, Berkeley Calif.).

[2] = test system: members of the BMP family; details: cited from earlier work
activin A = target: T1, activin A (Homo sapiens, UniProt P08476); details: cited from earlier work
T1 sequence (P08476 311-426): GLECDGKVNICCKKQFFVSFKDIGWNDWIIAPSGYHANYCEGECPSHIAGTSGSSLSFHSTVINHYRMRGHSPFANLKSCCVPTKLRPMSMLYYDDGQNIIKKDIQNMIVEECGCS

TGFβ = details: cited from earlier work
HSF6 cells [3] = test: Follistatin added to HSF6 cells on mEFs (immunohistochemistry, RT-PCR); format: cell-based, human; details: on mEFs with follistatin
Procedure: (§1) Stem cell culture: hES cell line HSF6 was maintained on mitomycin C treated CF1 mouse feeder layers (mEF) at 37° C., 5% CO2 in DSR medium, which consisted of high glucose DMEM containing knockout serum replacer, glutamine, non-essential amino acids, 0.1 mM β-mercaptoethanol (all from Gibco, Carlsbad, Calif.; www.invitrogen.com) as previously described,^19 or on laminin (20 μg/ml, Chemicon, www.chemicon.com) coated dishes or in DSR containing 50 ng/ml human recombinant Activin A (ACT A), 50 ng/ml human recombinant Keratinocyte Growth Factor (KGF), both from Preprotech Inc. (Rocky Hill N.J.; www.preprotech.com). These concentrations were determined from previous experiments with human fetal pancreatic cell culture.^14, 20 In some experiments, 10 ng/ml human recombinant Bone Morphogenetic Protein 4 (BMP-4; R&D Systems Minneapolis, Minn. www.RnDSystems.com) was used to replace ACT A, and 0.4 μg/ml follistatin (R&D Systems) was added to ES cells grown on mEFs, sufficient to neutralize 50 ng/ml Act A according to the manufacturer's directions. Medium was changed every day on cells grown on mEFs and every other day, on cells grown on laminin with the growth factors. Cells were passaged weekly at 1:3 or 1:4 dilution.
In some experiments, 10 ng/ml human recombinant Bone Morphogenetic Protein 4 (BMP-4; R&D Systems Minneapolis, Minn. www.RnDSystems.com) was used to replace activin A, and 2 μg/ml recombinant mouse FS-288 follistatin (R&D Systems) was added to ES cells grown on mEFs, sufficient to neutralize 50 ng/ml activin A according to manufacturer's directions. Medium was changed every day on cells grown on mEFs or in CM and every other day, on cells grown on laminin with the growth factors. Cells were passaged weekly at 1:3 or 1:4 dilution by gentle treatment with 1 mg/ml Collagenase IV (Gibco BRL) for 5 minutes, followed by scraping.
Immunohistochemistry: Stem cell cultures were grown on coverslips coated with mEFs or laminin fixed with 4% paraformaldehyde and stained. Protein expression of the stem cell markers TRA-1-60 and Oct-4 was analyzed by immunohistochemistry using primary mouse anti-TRA-1-60 (Chemicon) and rabbit anti-OCT-4 antiserum (a generous gift from Dr Hans Scholer, U Penn). Control slides were incubated with mouse IgM and rabbit IgG. […]
Alternatively, hES cell cultures were grown on coverslips coated with mEFs or laminin, fixed with 4% paraformaldehyde and immunostained as previously described.^4 Protein expression of the stem cell markers TRA-1-60, SSEA-4 and Oct-4 was analyzed using primary mouse anti-TRA-1-60 IgM (Chemicon) mouse anti-SSEA-4 IgG3 (DSHB, U of Iowa, Iowa City, Iowa), and rabbit anti-Oct-4 antiserum (a generous gift from Dr Hans Scholer, U Penn). […]

hES cells [4] = test: Semi-quantitative RT-PCR of stem cell markers in hES cells grown on laminin; format: cell-based, human; details: 1 week for NK and BMP-4 (10 ng/ml, replacing activin A)
Procedure: as §1
(§2) Alternatively, hES cell line HSF6 was maintained on mitomycin C treated CF1 mouse feeder layers (mEF) at 37° C., 5% CO2 in DSR medium as previously described^4. […]

HSF6 cells [5] = test: Immunohistochemistry of stem cell markers in hES cells grown on laminin; format: cell-based, human; details: NK and A for 1 week
Procedure: as §1, §2

HSF6 cells [6] = test: Flow cytometric analysis of TRA-1-60 cell-surface antigen expression; format: cell-based, human; details: activin removed from the culture for 1 week (NIC+KGF remain)
Procedure: (§3) Alternatively, hES cell line HSF6 was maintained on mitomycin C treated CF1 mouse feeder layers (mEF) at 37° C., 5% CO2 in DSR medium as previously described^4. For the experiments described here, passage 43 hES cells were cultured on laminin (20 μg/ml, Chemicon, www.chemicon.com) coated dishes in the presence of conditioned medium from mEFs (CM) supplemented with 10 ng/ml basic fibroblast growth factor (FGF2; Preprotech Inc. Rocky Hill N.J.; www.preprotech.com), or on laminin in DSR medium containing 50 ng/ml human recombinant activin A, 50 ng/ml human recombinant KGF, both from Preprotech, and 10 mM Nicotinamide (NIC; Sigma Corp, St Louis Mo.).
Flow cytometric analysis: Flow cytometry was used to quantify undifferentiated cells under different culture conditions. Cells were harvested using a 60 minute collagenase treatment followed by shearing into a single cell suspensions and filtering using a 70 micron cell filter. Single cells from each condition were labeled with mouse anti TRA-1-60 or mouse IgM (for controls) and FITC-conjugated donkey anti-mouse IgM (Jackson Immunoresearch). Cells were analyzed using a Becton Dickinson FACScan, and cell-surface antigen expression quantitated using CellQuest software.

hES cell line HSF6 = test: Long-term feeder-free culture and passaging in the undifferentiated state; format: cell-based, human
Procedure: as §1
as §3, with “Mo.). […]” for “Mo.).”

Smad2 = test: Western blotting for phosphorylated Smad2; format: cell-based, human; details: HSF6 cells grown in the presence of Activin A
Procedure: Western blotting: Western blotting was used for phosphorylated Smad2, and was performed on lysates of HSF6 cells as previously described.^4 Cells cultured in the presence of activin A were lysed in detergent containing buffer supplemented with vanadate (10 μM) and microcystin (1 μM) and first blotted with phospho-Smad2 (ser465/467) antibody (Cell Signaling, cellsignal.com). Blots were then stripped and reprobed with Smad2 antibody (Cell Signaling).

Molecule: NC(=O)c1cccnc1 [NIC, nicotinamide, reference compound]
- proliferation rate (3H thymidine incorporation) (hES cells [1]): intermediate

Molecule: follistatin
- affinity for members of the BMP family [2]: lower affinity
- affinity for activin A (activin A): extremely high affinity
- binding to TGFβ (TGFβ): does not bind
- expression of oct-4 and nanog, RT-PCR (HSF6 cells [3]; 1 week): absent (nanog) or markedly diminished (oct-4)
- staining for TRA-1-60 and Oct-4 (immunohistochemistry) (HSF6 cells [3]; 1 week): lost staining for TRA-1-60 (cytoplasmic), with reduced staining for Oct-4
- expression of oct-4 and nanog, RT-PCR (HSF6 cells [3]; 2 weeks): completely lost
- staining for Oct-4 (immunohistochemistry) (HSF6 cells [3]; 2 weeks): Oct-4 immunoreactivity had completely disappeared

B1: BMP-4: human recombinant Bone Morphogenetic Protein 4, another TGFβ family member, used to replace activin A (protein, UniProt P12644 293-408, looked up)
Bone morphogenetic protein 4: SPKHHSQRARKKNKNCRRHSLYVDFSDVGWNDWIVAPPGYQAFYCHGDCPFPLADHLNSTNHAIVQTLVNSVNSSIPKACCVPTELSAISMLYLDEYDKVVLKNYQEMVVEGCGCR
- expression of stem cell markers oct-4, nanog (telomerase), RT-PCR (hES cells [4]): loss of expression for nanog, oct-4, and telomerase; also recorded: complete loss of expression for nanog and oct-4

B2: Activin A: human recombinant Activin A, TGFβ family member; homodimer of inhibin beta-A chain (protein)
chain: T1 sequence (P08476 311-426)
- staining for TRA-1-60 and Oct-4 / phenotype (immunohistochemistry) (HSF6 cells [5]): no change in phenotype
- percentage of cells expressing TRA-1-60 after removal of activin (HSF6 cells [6]): 3.9%
- concentration optimal to maintain the cells in an undifferentiated state (hES cell line HSF6; dose response at 5, 50 and 100 ng/ml): 50 ng/mL
- continued growth and passaging (hES cell line HSF6; on laminin): could not be passaged further
- passages of continuous growth in the undifferentiated state (hES cell line HSF6; on laminin, without feeder layers, conditioned medium or STAT3 activation): at least 10 passages
- proliferation rate (3H thymidine incorporation) (hES cells [1]): significantly reduced
- Smad2 phosphorylation (Smad2): showing phospho-Smad 2
